Columns and labels:
Assay type in all cases: cell-based, human
[1] = system: COLO320-DM cells and COLO320-HSR cells; assay: JQ1 dose titration: cell viability (CellTiterGlo) and cell proliferation; conditions: viability 48 hours, proliferation over 72 hours
Method: Cells were plated in 96-well plates at 25,000 cells/well in triplicate and incubated either with JQ1 (Sigma-Aldrich SML1524) at the indicated concentrations or an equivalent volume of DMSO for 48 hours. Cell viability was measured using the CellTiterGlo assay kit (Promega G7572) in triplicate with luminescence measured on SpectraMax M5 plate reader with an integration time of 1 second per well. Luminescence was normalized to the DMSO treated controls and p values calculated using a Student's t-test comparing biological triplicates.
Cells were plated in 96-well plates at 10,000 cells/well and incubated either with JQ1 (Sigma-Aldrich SML1524) at the indicated concentrations or an equivalent volume of DMSO. Every 24 hours, cells were harvested and counted on Countess 3 Automated Cell Counter (Thermo Fisher) with Trypan Blue used to assess cell viability. P values were calculated using a Student's t-test comparing biological triplicates.

ecDNA+ COLO320-DM cells = assay: PVT1 promoter-driven NanoLuc luciferase reporter in COLO320-DM; conditions: JQ1 500 nM, 6 hours
Description: We constructed a plasmid containing the 2 kb PVT1 promoter (chr8: 128,804,981-128,806,980, hg19) or the MYC promoter (chr8: 128,745,990-128,748,526, hg19) driving NanoLuc luciferase (PVT1p-nLuc) and a constitutive thymidine kinase (TK) promoter driving Firefly luciferase as an internal control (FIG. 3b). Briefly, pGL4-tk-luc2 (Promega) was digested with KpnI and PciI. A sequence containing multiple cloning sites ([…]), NanoLuc and BGH polyA sequence were inserted in tandem into the vector using Gibson assembly (NEBuilder DNA assembly mix). Next, the PVT1 promoter or the MYC promoter was inserted into the vector via NheI and SalI digestion to generate the final reporter construct. For the negative control, a minimal promoter ([…]) was used in place of the PVT1 promoter. For constructing plasmids with a cis-enhancer, an enhancer (chr8: 128347148-128348310, hg19; positive H3K27ac mark and looping to the PVT1 promoter in HiChIP, overlapping with BRD4 ChIP peak and ATAC-seq peak in COLO320-DM) was inserted directly 5′ to the promoter into the region with multiple cloning sites. […] Luciferase levels were quantified using Nano-Glo Dual reporter luciferase assay (Promega). The reporter level was calculated as the ratio of NanoLuc reading over firefly reading using Tecan M1000. Mean and standard errors were calculated based on three biological replicates with three technical replicate each.

[2] = system: MYC mRNA in COLO320-HSR cells; assay: MYC RNA measured by RT-qPCR in COLO320-HSR; conditions: 500 nM, 6 hours
Method: (§1) Cells were then treated for 6 hours with 500 nM JQ1 in DMSO unless otherwise indicated (Sigma-Aldrich SML1524) or an equivalent volume of DMSO.
(§2) RNA was extracted using RNeasy Plus mini Kit (QIAGEN 74136). Purified RNA was quantified by Nanodrop (Thermo Fisher). For RT-qPCR, 50 ng of RNA, 1× Brilliant II qRT-PCR mastermix with 1 μL RT/RNase block (Agilent 600825), and 200 nM forward and reverse primer were used. Each Ct value was measured using Lightcycler 480 (Roche) and each mean dCt was averaged from duplicate qRT-PCR reaction and performed in biological triplicate. Relative MYC RNA level (RT-qPCR primers MYC_exon3_fw and MYC_exon3_rv) was calculated by ddCt method compared to 18S and GAPDH controls (RT-qPCR primers GAPDH_fw, GAPDH_rv, 18S_fw, 18S_rv). P values were calculated using a Student's t-test by comparing the relative fold change of biological triplicates.
(§3) Approximately 0.6×10^6 COLO320-DM or COLO-320-HSR cells were plated in 6 well plates and cultured under standard conditions for 24 hours. Cells were then treated for 6 hours with one of the following: 500 nM JQ1 (Sigma-Aldrich SML1524), 500 nM MS645 (Sigma Aldrich SML2549), 1 μM THZ-1 (Selleck chemicals S7549), 20 μM SGC-SCP30 (Selleck chemicals S7256), 10 μM OICR-9429 (Selleck chemicals S7833), 50 μM MI-3 (Selleck chemicals S7619), 2 μM trichostatin A (Selleck chemicals S1045), or DMSO. […]

[3] = system: MYC mRNA in COLO320-DM cells; assay: MYC RNA measured by RT-qPCR in COLO320-DM; conditions: 500 nM, 6 hours
Method: as §1, §2, §3

Cc1sc2c(c1C)C(c1ccc(Cl)cc1)=N[C@@H](CC(=O)OC(C)(C)C)c1nnc(C)n1-2 [JQ1]
cell killing, COLO320-DM versus COLO320-HSR [1]: modest preferential killing of COLO320-DM cells over HSR cells
repression of PVT1p-mediated transcription (ecDNA+ COLO320-DM cells): ~5 fold
MYC mRNA level [2]: no significant effect
MYC mRNA level [3]: preferentially lowered

Source: patent publication US20250304952A1, “DNA ELEMENT RESPONSIVE TO EXTRACHROMOSOMAL DNA IN CANCER CELLS” (The Board of Trustees of the Leland Stanford Junior …, priority 2021, published 2025)
